Data taken from patent publication US10159651B2, “Two-stage microparticle-based therapeutic delivery system and method” (Privo Technologies, Inc., priority 2016, dated 2018).

Key:
[1] = release profile of cisplatin from particles, detected by atomic absorption spectrometry; format: physicochemical; settings: over 60 hours; particles of average diameter 500 to 2000 nm
Description: FIG. 1 is a graph showing the release profile of example particles having an average diameter in the range of 500 to 2000 nm. […] Cisplatin was used for this experiment due to its use in the treatment of oral cancer and its ease of detection via atomic absorption spectrometry (AAS).

[2] = permeation of fluorescent dyes from multi-layered device into buccal tissue; format: in vitro ADME, lamb
Description: FIGS. 5A-5C show three images taken from lamb buccal tissue at different time points.
In another representative embodiment, a multi-layered device may be used for the delivery of multiple agents over a prolonged period of time (FIG. 4, FIG. 5). If the example of mucositis is again used, multiple layers may include a pain mitigator in free form, a pain mitigator encapsulated within microparticles and an agent for the treatment of mucositis encapsulated within microparticles. The initial freeform layer is able to provide immediate pain relief, and the subsequent particle-encapsulated layers are capable of delivering microparticles beneath the tissue, where they further release their agents over a period of days, providing longer-term pain relief and treatment. FIG. 4 and FIG. 5 illustrate this effect. Fluorescence was used in order to provide detection. As shown, the multiple fluorescent layers released over time and permeated the tissue at different rates, providing a customized treatment.

In the case of N.N.[Cl][Pt][Cl] [cisplatin, Cisplatin], the “cisplatin released from NPs” value [1] is reported as 45%.

For O=C1OC2(c3ccc(O)cc3Oc3cc(O)ccc32)c2ccc(N=C=S)cc21 [FITC], the permeation into tissue ([2]; after 30 minutes) was “beginning to permeate the tissue” and the permeation into tissue ([2]; after 1 hour) was “permeating deeper into the tissue”.
